Measurements published in patent US7915297B2, “Isoxazole derivatives and use thereof” (SK Holdings Co., Ltd., priority 2005, dated 2011).

Assays:
[1] = tested on: Wnt/β-catenin signaling (β-catenin activity) in HEK293 cell line; experiment: Cell-based Wnt agonist screening, TCF luciferase reporter, HEK293 (TCF-FL); parameters: species or system human; conditions: Homo sapiens, HEK293, 24 h, % of LiCl (20 mM), 24 h, read-out: Max. Activity (%); for Emax at 30 µM: Conc. 30 μM; for Emax at 120 µM: Conc. 120 μM; for Emax at 15 µM: Conc. 15 μM
Description: (§1) In order to measure the in vitro activity of compounds of the present invention, two human cancer cell lines, HEK293 and SW480, which have intact Wnt signaling and show APC gene mutation in the Wnt signaling pathway, respectively, were used.
(§2) For evaluating the activity of wnt/β-catenin signaling in the cancer cell lines, gene as illustrated in FIG. 1 having β-catenin-binding sites of the Tcf/Lef transcriptional control protein (5 sites of TCF, 5X TCF) and having a fire fly luficerase as a marker protein ascertainable the activity of 5X TCF was introduced into the cells. Treatment with G418 led monoclones of the cell lines, in which the genes were permanently expressed, so as to construct a cell-based Wnt agonist screening system. […] For comparison with the activity of the isoxazole derivatives as Wnt agonists, lithium chloride (LiCl), acting as a positive control for the cell-based Wnt agonist screening system, was used to determine the expression level of the luciferase, and the results are shown in FIG. 3.
(§3) The cell lines, in which a cell-based Wnt agonist screening system was constructed, were cultured in RPMI 1640 media supplemented with penicillin-streptomycin (100 Units/mL) and heat-inactivated 5% fetal bovine serum under standard culture conditions (5% CO2, 37° C., 100% relative humidity). […] The suspension was diluted with the same medium to adjust the cell count to 8,000˜15,000 cells per well and was moved then in a 96-well microtiter plate. After being incubated for 24 hrs, the cells were treated with various concentrations of the isoxazole derivatives synthesized in Preparation Examples. Incubation for an additional 24 hours was followed by the quantitative analysis of luciferase activity using a Luciferase Assay kit (Promega, U.S.A.) according to the protocol described in the manual provided by the manufacturer. Data on the activities of the isoxazole derivatives thus synthesized are given in Tables 34 to 43, and are expressed as percentages relative to the activity of the positive control LiCl (20 mM), a well-known agonist of Wnt signaling.

[2] = tested on: Wnt/β-catenin signaling (β-catenin activity) in SW480 cell line; experiment: Cell-based Wnt agonist screening, TCF luciferase reporter, SW480 (TCF-FL); parameters: species or system human; conditions: Homo sapiens, % of LiCl (20 mM), 24 h, read-out: Max. Activity (%); for Emax at 120 µM: Con. 120 μM; for Emax at 30 µM: Con. 30 μM; for Emax at 60 µM: Con. 60 μM
Description: as §1, §2, §3

| SMILES | Emax at 30 µM [1] [%] | Emax at 30 µM [2] [%] | other results |
| --- | --- | --- | --- |
| O=C(NCCc1ccc(Br)cc1)c1cc(-c2ccco2)on1 [Derivative (25), 5-furan-2-yl-isoxazole-3-carboxylic acid [2-(4-bromo-phenyl)-ethyl]-amide] | < 20 | – | Emax at 120 µM [2]: 223% |
| O=C(NCCc1cccc(O)c1)c1cc(-c2ccco2)on1 [Derivative (23), 5-furan-2-yl-isoxazole-3-carboxylic acid [2-(3-hydroxy-phenyl)-ethyl]-amide] | < 20 | < 20 | – |
| Cc1cn(CCNC(=O)c2cc(-c3ccco3)on2)cn1 [Derivative (37), 5-furan-2-yl-isoxazole-3-carboxylic acid [2-(4-methyl-imidazol-1-yl)-ethyl]-amide] | – | – | Emax at 120 µM [1]: 44%; Emax at 120 µM [2]: 296% |
| O=C(NCCn1ncnn1)c1cc(-c2ccc(F)cc2)on1 [Derivative (91), 5-(4-fluoro-phenyl)-isoxazole-3-carboxylic acid (2-tetrazol-2-yl-ethyl)-amide] | 103 | 103 | – |
| O=C(NCCn1cncn1)c1cc(-c2ccc(F)cc2)on1 [Derivative (88), 5-(4-fluoro-phenyl)-isoxazole-3-carboxylic acid (2-[1,2,4]triazol-1-yl-ethyl)-amide] | – | – | Emax at 120 µM [1]: 600%; Emax at 120 µM [2]: 600% |
| Cc1cncn1CCCNC(=O)c1cc(-c2ccco2)on1 [Derivative (57), 5-furan-2-yl-isoxazole-3-carboxylic acid [3-(5-methyl-imidazol-1-yl)-propyl]amide] | < 20 | < 20 | – |
| COc1cccc(CCNC(=O)c2cc(-c3ccco3)on2)c1 [Derivative (20), 5-furan-2-yl-isoxazole-3-carboxylic acid [2-(3-methoxy-phenyl)-ethyl]-amide] | < 20 | – | Emax at 60 µM [2]: 528% |
| O=C(NCCc1cccnc1)c1cc(-c2cccc(O)c2)on1 [Derivative (110), 5-(3-hydroxy-phenyl)-isoxazole-3-carboxylic acid (2-pyridin-3-yl-ethyl)-amide] | < 20 | < 20 | – |
| O=C(NCCCn1ncnn1)c1cc(-c2ccco2)on1 [Derivative (53), 5-furan-2-yl-isoxazole-3-carboxylic acid (3-tetrazol-2-yl-propyl)-amide] | < 20 | < 20 | – |
| O=C(NCCc1ccc([N+](=O)[O-])cc1)c1cc(-c2ccco2)on1 [Derivative (27), 5-furan-2-yl-isoxazole-3-carboxylic acid [2-(4-nitro-phenyl)-ethyl]-amide] | < 20 | < 20 | – |
| O=C(NCc1ccncc1)c1cc(-c2ccco2)on1 [Derivative (9), 5-furan-2-yl-isoxazole-3-carboxylic acid (pyridin-4-ylmethyl)-amide] | < 20 | < 20 | – |
| O=C(NCCCn1cncn1)c1cc(-c2ccc(F)cc2)on1 [Derivative (84), 5-(4-fluoro-phenyl)-isoxazole-3-carboxylic acid (3-[1,2,4]triazol-1-yl-propyl)-amide] | 907 | 907 | – |
| Nc1ccc(CCNC(=O)c2cc(-c3ccco3)on2)cc1 [Derivative (26), 5-furan-2-yl-isoxazole-3-carboxylic acid [2-(4-amino-phenyl)-ethyl]-amide] | < 20 | < 20 | – |
| O=C(NCCc1cccnc1)c1cc(-c2ccco2)on1 [Derivative (11), 5-furan-2-yl-isoxazole-3-carboxylic acid (2-pyridin-3-yl-ethyl)-amide] | 61 | – | Emax at 60 µM [2]: 625% |
| O=C(NCCCn1ccnc1)c1cc(-c2ccccc2F)on1 [Derivative (81), 5-(2-fluoro-phenyl)-isoxazole-3-carboxylic acid (3-imidazol-1-yl-propyl)-amide] | – | – | Emax at 120 µM [1]: 869%; Emax at 120 µM [2]: 869% |
| O=C(NCCc1ccc2c(c1)OCO2)c1cc(-c2ccco2)on1 [Derivative (29), 5-furan-2-yl-isoxazole-3-carboxylic acid (2-benzo[1,3]dioxol-5-yl-ethyl)-amide] | < 20 | < 20 | – |

| SMILES | Emax at 30 µM [1] [%] | Emax at 30 µM [2] [%] | other results |
| --- | --- | --- | --- |
| Cc1ccc(-c2cc(C(=O)NCCCn3ccnc3)no2)cc1 [Derivative (80), 5-p-tolyl-isoxazole-3-carboxylic acid (3-imidazol-1-yl-propyl)-amide] | – | – | Emax at 120 µM [1]: 58%; Emax at 120 µM [2]: 58% |
| O=C(NCCCCn1ccnc1)c1cc(-c2ccco2)on1 [Derivative (34), 5-furan-2-yl-isoxazole-3-carboxylic acid (4-imidazol-1-yl-butyl)-amide] | – | – | Emax at 120 µM [1]: 44%; Emax at 120 µM [2]: 120% |
| O=C(NCCCn1ccnc1)c1noc(-c2ccco2)c1Cc1ccccc1 [Derivative (67), 4-benzyl-5-furan-2-yl-isoxazole-3-carboxylic acid (3-imidazol-1-yl-propyl)-amide] | < 20 | < 20 | – |
| O=C(NCCCn1ccnc1)c1cc(-c2cccnc2)on1 [Derivative (76), 5-pyridin-3-yl-isoxazole-3-carboxylic acid (3-imidazol-1-yl-propyl)-amide] | < 20 | < 20 | – |
| O=C(NCCc1ccccn1)c1cc(-c2ccccc2)on1 [Derivative (70), 5-phenyl-isoxazole-3-carboxylic acid (2-pyridin-2-yl-ethyl)-amide] | – | – | Emax at 60 µM ([1]; Conc. 60 μM): 51%; Emax at 120 µM [2]: 789% |
| O=C(NCCn1ccnc1)c1cc(-c2ccccc2)on1 [Derivative (69), 5-phenyl-isoxazole-3-carboxylic acid (2-imidazol-1-yl-ethyl)-amide] | < 20 | < 20 | – |
| O=C(NCCCn1cnc(Br)c1)c1cc(-c2ccco2)on1 [Derivative (60), 5-furan-2-yl-isoxazole-3-carboxylic acid [3-(4-bromo-imidazol-1-yl)-propyl]-amide] | < 20 | 196 | – |
| O=C(NCCCc1ccccc1)c1cc(-c2ccco2)on1 [Derivative (6), 5-furan-2-yl-isoxazole-3-carboxylic acid (3-phenyl-propyl)-amide] | < 20 | – | Emax at 60 µM [2]: 322% |
| O=C(O)c1ccc(CCNC(=O)c2cc(-c3ccco3)on2)cc1 [Derivative (32), 4-{2-[(5-furan-2-yl-isoxazole-3-carbonyl)-amino]-ethyl}-benzoic acid] | – | – | Emax at 120 µM [1]: 52%; Emax at 120 µM [2]: 789% |
| O=C(NCCc1ccncc1)c1cc(-c2cccc(O)c2)on1 [Derivative (108), 5-(3-hydroxy-phenyl)-isoxazole-3-carboxylic acid (2-pyridin-4-yl-ethyl)-amide] | < 20 | – | Emax at 15 µM [1]: 600%; Emax at 15 µM ([2]; Con. 15 μM): 600% |
| Cc1cn(CCCNC(=O)c2cc(-c3ccco3)on2)cn1 [Derivative (56), 5-furan-2-yl-isoxazole-3-carboxylic acid [3-(4-methyl-imidazol-1-yl)-propyl]-amide] | < 20 | – | Emax at 15 µM [1]: 58%; Emax at 600 µM ([2]; Con. 600 μM): 650% |
| O=C(NCCCn1ccnc1)c1cc(-c2ccccc2)on1 [Derivative (68), 5-phenyl-isoxazole-3-carboxylic acid (3-imidazol-1-yl-propyl)-amide] | 47 | – | Emax at 60 µM [2]: 486% |
| O=C(NCCc1ccccc1F)c1cc(-c2ccco2)on1 [Derivative (16), 5-furan-2-yl-isoxazole-3-carboxylic acid [2-(2-fluoro-phenyl)-ethyl]-amide] | < 20 | 327 | – |
| O=C(NCc1ccccn1)c1cc(-c2ccco2)on1 [Derivative (7), 5-furan-2-yl-isoxazole-3-carboxylic acid (pyridin-2-ylmethyl)-amide] | < 20 | < 20 | – |
| CCc1c(C(=O)NCCCn2ccnc2)noc1-c1ccco1 [Derivative (66), 4-ethyl-5-furan-2-yl-isoxazole-3-carboxylic acid (3-imidazol-1-yl-propyl)-amide] | < 20 | < 20 | – |
